Source: patent US7396837B2, “Antitumoral analogs of lamellarins” (Pharma Mar, S.A.U., priority 2002, dated 2008)

Tests used:
human topoisomerase I = target: T1, human topoisomerase I (Homo sapiens, UniProt P11387); experiment: Topoisomerase I DNA relaxation assay (supercoiled plasmid DNA); format: biochemical; conditions: supercoiled plasmid DNA, each compound tested at 1 μM, agarose gel with ethidium bromide
T1 sequence (P11387 1-765): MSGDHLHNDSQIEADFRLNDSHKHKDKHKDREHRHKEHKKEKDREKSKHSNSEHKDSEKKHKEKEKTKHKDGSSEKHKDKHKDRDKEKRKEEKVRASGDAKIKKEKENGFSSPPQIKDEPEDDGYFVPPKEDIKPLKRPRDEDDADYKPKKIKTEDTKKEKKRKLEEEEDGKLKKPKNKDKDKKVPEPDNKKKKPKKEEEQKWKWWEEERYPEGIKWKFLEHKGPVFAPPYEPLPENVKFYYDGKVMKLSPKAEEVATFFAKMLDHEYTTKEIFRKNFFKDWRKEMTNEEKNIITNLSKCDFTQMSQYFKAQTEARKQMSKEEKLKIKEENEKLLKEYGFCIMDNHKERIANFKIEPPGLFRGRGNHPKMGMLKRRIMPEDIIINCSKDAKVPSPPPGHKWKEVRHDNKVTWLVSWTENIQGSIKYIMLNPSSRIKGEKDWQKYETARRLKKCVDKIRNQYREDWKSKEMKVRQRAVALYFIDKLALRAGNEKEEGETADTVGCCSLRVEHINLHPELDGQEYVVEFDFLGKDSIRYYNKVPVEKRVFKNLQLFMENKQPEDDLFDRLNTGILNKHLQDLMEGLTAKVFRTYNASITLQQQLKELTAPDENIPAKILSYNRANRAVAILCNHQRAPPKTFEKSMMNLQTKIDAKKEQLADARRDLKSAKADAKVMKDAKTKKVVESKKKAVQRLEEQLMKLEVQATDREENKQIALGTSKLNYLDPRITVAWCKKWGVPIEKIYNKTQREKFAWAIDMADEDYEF
Description: Two assays, based on DNA relaxation and DNA cleavage (Bailly, C. DNA relaxation and cleavage assays to study topoisomerase I inhibitors. Methods Enzymol. 2001, 340, 610-623) were used evaluate the effects of the lamellarin analogs on the catalytic activity of human topoisomerase I.
In the first assay, a supercoiled plasmid DNA was relaxed with topoisomerase I in the absence or presence of the test compounds, each tested at 1 μM. DNA relaxation products were then resolved by gel electrophoresis on agarose gels containing ethidium bromide to stain the DNA.

SK-BR-3 = experiment: SRB colorimetric cell growth inhibition assay, SK-BR-3; format: cell-based; conditions: SK-BR-3
Outline: (§1)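 Human tumour cells continuously exposed to compound in 96-well culture; growth and viability quantified colorimetrically by sulforhodamine B staining. Mean ± SD from triplicate wells; GI (growth inhibition), TGI (total growth inhibition, cytostatic) and LC (cell killing, cytotoxic) parameters derived.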

H-MEC-1 = experiment: SRB colorimetric cell growth inhibition assay, H-MEC-1; format: cell-based; conditions: H-MEC-1
From the text: (§2) A colorimetric type of assay, using sulforhodamine B (SRB) reaction has been adapted for a quantitative measurement of cell growth and viability (following the technique described by P. A. Skehan, et al., J. Natl. Cancer Inst. 1990, 82, 1107-1112).
(§3) This form of assay employs 96 well cell culture microplates of 9 mm diameter (T. Mosmann et al., J. of Immunological Methods 1983, 65, 55-63; G. T. Faircloth et al., J. of Tissue and Culture Methods 1988, 11, 201-205).
(§4) Most of the cell lines are obtained from American Type Culture Collection (ATCC) derived from different human cancer types.
(§5) The values for mean +/− SD of data from triplicate wells are calculated. Some parameters for cellular responses can be calculated: GI=growth inhibition, TGI=total growth inhibition (cytostatic effect) and LC=cell killing (cytotoxic effect).

IGROV-ET = experiment: SRB colorimetric cell growth inhibition assay, IGROV-ET (ET-743 resistant); format: cell-based; conditions: IGROV-ET
Outline: as §1

SKOV-3 = experiment: SRB colorimetric cell growth inhibition assay, SKOV-3; format: cell-based; conditions: SKOV-3
From the text: as §2, §3, §4, §5

LoVo = experiment: SRB colorimetric cell growth inhibition assay, LoVo; format: cell-based; conditions: LOVO
Outline: as §1

IGROV = experiment: SRB colorimetric cell growth inhibition assay, IGROV; format: cell-based; conditions: IGROV
Outline: as §1

LoVo-Dox = experiment: SRB colorimetric cell growth inhibition assay, LoVo-Dox (MDR); format: cell-based; conditions: LOVO-DOX
Outline: as §1

K-562 = experiment: SRB colorimetric cell growth inhibition assay, K-562; format: cell-based; conditions: K-562
Outline: as §1

HT-29 = experiment: SRB colorimetric cell growth inhibition assay, HT-29; format: cell-based; conditions: HT-29
Outline: as §1

LNCaP = experiment: SRB colorimetric cell growth inhibition assay, LNCaP; format: cell-based; conditions: LN-caP
Outline: as §1

SK-MEL-28 = experiment: SRB colorimetric cell growth inhibition assay, SK-MEL-28; format: cell-based; conditions: MEL-28
Outline: as §1

PANC-1 = experiment: SRB colorimetric cell growth inhibition assay, PANC-1; format: cell-based; conditions: PANC-1
Outline: as §1

DU-145 = experiment: SRB colorimetric cell growth inhibition assay, DU-145; format: cell-based; conditions: DU-145
Outline: as §1

A-549 = experiment: SRB colorimetric cell growth inhibition assay, A-549; format: cell-based; conditions: A-549
Outline: as §1

[1] = total growth inhibition (cytostatic effect)

## COc1cc(-c2c3n(c4c(=O)oc5cc(OS(C)(=O)=O)c(OC)cc5c24)CCc2cc(OS(C)(=O)=O)c(OC)cc2-3)ccc1OS(C)(=O)=O [Compound 22]
Human topoisomerase I
  stimulation of DNA cleavage by topoisomerase I / inhibition of topoisomerase I (nicked DNA band) in DNA relaxation assay: inactive
SK-BR-3; GI=growth inhibition, read-out: GI50 SK-BR-3
  GI50: 257 nM
SK-BR-3; cell killing (cytotoxic effect), read-out: LC50 SK-BR-3
  CC50: 7.16 µM
SK-BR-3; [1]
  TGI SK-BR-3: 1.81E−06 Molar
H-MEC-1; GI=growth inhibition, read-out: GI50 H-MEC-1
  GI50: 856 nM
H-MEC-1; cell killing (cytotoxic effect)
  LC50 (concentration giving 50% net cell killing): 10.4 µM
H-MEC-1; [1]
  TGI H-MEC-1: 2.91E−06 Molar
IGROV-ET; GI=growth inhibition, read-out: GI50 IGROV-ET
  GI50: 2890 nM
IGROV-ET; cell killing (cytotoxic effect), read-out: LC50 IGROV-ET
  CC50: 13.6 µM
IGROV-ET; [1]
  TGI IGROV-ET: 1.36E−05 Molar
SKOV-3; GI=growth inhibition, read-out: GI50 SKOV-3
  GI50: 201 nM
SKOV-3; cell killing (cytotoxic effect), read-out: LC50 SKOV-3
  LC50 (concentration causing 50% net cell killing): 13.6 µM
SKOV-3; [1]
  TGI SKOV-3: 2.22E−06 Molar
LoVo; GI=growth inhibition, read-out: GI50 LOVO
  GI50: 484 nM
LoVo; cell killing (cytotoxic effect), read-out: LC50 LOVO
  CC50: 13.6 µM
LoVo; [1]
  TGI LOVO: 2.49E−06 Molar
IGROV; GI=growth inhibition, read-out: GI50 IGROV
  GI50: 787 nM
IGROV; cell killing (cytotoxic effect), read-out: LC50 IGROV
  CC50: 13.6 µM
IGROV; [1]
  TGI IGROV: 8.54E−06 Molar
LoVo-Dox; GI=growth inhibition, read-out: GI50 LOVO-DOX
  GI50: 6.59 µM
LoVo-Dox; cell killing (cytotoxic effect), read-out: LC50 LOVO-DOX
  CC50: 13.6 µM
LoVo-Dox; [1]
  TGI LOVO-DOX: 1.36E−05 Molar
K-562; GI=growth inhibition, read-out: GI50 K-562
  GI50: 670 nM
K-562; cell killing (cytotoxic effect), read-out: LC50 K-562
  CC50: 13.6 µM
K-562; [1]
  TGI K-562: 4.77E−06 Molar
HT-29; GI=growth inhibition, read-out: GI50 HT-29
  GI50: 879 nM
HT-29; cell killing (cytotoxic effect), read-out: LC50 HT-29
  CC50: 13.6 µM
HT-29; [1]
  TGI HT-29: 1.36E−05 Molar
LNCaP; GI=growth inhibition, read-out: GI50 LN-caP
  GI50: 564 nM
LNCaP; cell killing (cytotoxic effect), read-out: LC50 LN-caP
  CC50: 13.6 µM
LNCaP; [1]
  TGI LN-caP: 1.82E−06 Molar
SK-MEL-28; GI=growth inhibition, read-out: GI50 MEL-28
  GI50: 332 nM
SK-MEL-28; cell killing (cytotoxic effect), read-out: LC50 MEL-28
  CC50: 13.6 µM
SK-MEL-28; [1]
  TGI MEL-28: 3.56E−06 Molar
PANC-1; GI=growth inhibition, read-out: GI50 PANC-1
  GI50: 976 nM
PANC-1; cell killing (cytotoxic effect), read-out: LC50 PANC-1
  CC50: 13.6 µM
PANC-1; [1]
  TGI PANC-1: 1.36E−05 Molar
DU-145; GI=growth inhibition, read-out: GI50 DU-145
  GI50: 743 nM
DU-145; cell killing (cytotoxic effect), read-out: LC50 DU-145
  CC50: 13.6 µM
DU-145; [1]
  TGI DU-145: 8.10E−06 Molar
A-549; GI=growth inhibition, read-out: GI50 A-549
  GI50: 890 nM
A-549; cell killing (cytotoxic effect), read-out: LC50 A-549
  CC50: 13.6 µM
A-549; [1]
  TGI A-549: 7.73E−06 Molar
